{"source": "patent US20220162537A1", "about": "“FLUID SYSTEM FOR PRODUCING EXTRACELLULAR VESICLES COMPRISING A THERAPEUTIC OR IMAGING AGENT AND METHOD THEREOF” (CENTRE NATIONAL DE LA RECHERCHE SCIENTIFIQUE, priority 2018, published 2022)", "test_system": "HT29 tumors", "test": "HT29 tumor growth retardation after photodynamic therapy (Kaplan-Meier)", "format": "in vivo, mice", "details": "photodynamic therapy with laser activation", "description": "FIG. 8 illustrates Kaplan-Meier diagrams of HT29 tumor growth retardation after treatment with free mTHPC; the liposomal formulation of mTHPC (mTHPC Liposome) and mTHPC vesicles with laser activation of the drug (photodynamic therapy), compared to the same groups without laser activation (control, dotted lines).\nFIG. 8 illustrates Kaplan-Meier diagrams of tumor growth retardation HT29 after treatment with free mTHPC; the liposomal formulation of mTHPC and mTHPC-EVs with laser activation of the drug (photodynamic therapy, three-dimensional therapies), compared to the same groups without laser activation (control, dotted lines). The inventors have compared the therapeutic effect of EVs mTHPC, the liposomal formulation of mTHPC and free mTHPC in terms of tumor growth, 90 days after treatment. […] Thus, compared to the liposomes, the charged vesicles of active agents obtained according to the methods of the present invention can constitute a very advantageous alternative both of the point of view of the pharmacodynamics properties and the effectiveness of the treatment carried out. The liposomes are known for the vectorization of various biomolecules such as enzymes, hormones, antisense oligonucleotides, ribozymes, proteins or DNA peptides, cancer molecules (Farjadian et al 2018). […]", "data": [{"smiles": "Oc1cccc(-c2c3nc(c(-c4cccc(O)c4)c4ccc([nH]4)c(-c4cccc(O)c4)c4nc(c(-c5cccc(O)c5)c5ccc2[nH]5)CC4)C=C3)c1", "note": "[mTHPC, meta-tetra (hydroxyphenyl) chlorin]", "values": [{"measurement": "percentage of tumors (growth 10 times higher criterion) at day 90", "value": 20, "unit": "%"}]}]}
